In patent US10329324B2 (viDA Therapeutics Inc., priority 2013, dated 2019):
Like-named read-outs stand apart in the source and are kept apart here.

Legend:
[1] = Kinetic solubility determination in PBS; type: physicochemical; conditions: phosphate buffered saline (PBS 1×), 21 °C, pH 7.4, aqueous buffer, kinetic from dmso stock, PBS 1X pH 7.4, 2.0% DMSO, 24 hour incubation at ambient temperature
How it was run: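 DMSO stocks were diluted into PBS (1×) pH 7.4 to 2.0% final DMSO and a maximum theoretical concentration of typically 200 μM. After 24 hour incubation at ambient temperature (20.5-21.7° C.), samples were vacuum filtered. The filtrate was quantified by chemiluminescent nitrogen detection against a nitrogen calibration curve, with background-corrected values given in μM and μg/mL.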

GzmB = GzmB (Homo sapiens, UniProt P10144); assay: Inhibition of fibronectin cleavage by GzmB; type: biochemical; conditions: 20 nM granzyme B, labeled fibronectin; for inhibition at 0.62 µM: 0.62 uM inhibitor, read-out: Percent Inhibition at Inhibitor Concentration 0.62 uM; for inhibition at 5.56 µM: 5.56 uM inhibitor, read-out: Percent Inhibition at Inhibitor Concentration 5.56 uM; for inhibition at 50 µM: 50 uM inhibitor, read-out: Percent Inhibition at Inhibitor Concentration 50 uM
Sequence of GzmB (P10144 21-247): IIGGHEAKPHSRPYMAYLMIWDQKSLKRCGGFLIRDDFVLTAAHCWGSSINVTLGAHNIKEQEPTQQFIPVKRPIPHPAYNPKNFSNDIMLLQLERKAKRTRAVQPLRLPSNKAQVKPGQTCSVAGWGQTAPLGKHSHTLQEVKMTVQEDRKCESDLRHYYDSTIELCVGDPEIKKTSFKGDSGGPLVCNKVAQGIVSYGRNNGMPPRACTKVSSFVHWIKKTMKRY
Description: Black, 96 well high-binding assay plates (Griener Bio-one) were treated overnight at 4° C. with 40 uL of 8 ug/mL Hilyte Fluor 488 labeled Fibronectin (Cytoskeleton, Inc). After fibronectin coating, plates were washed 3 times in buffer (20 mM Tris-HCl, pH 7.4, 20 mM NaCl) then once with granzyme B assay buffer (50 mM HEPES, pH 7.5, 0.1% CHAPS). After washing, 50 uL of granzyme B assay buffer was added to each fibronectin-coated well. In a separate non-binding 96 well assay plate 5 uL of 20× inhibitor serial dilution stocks were added to 45 uL of 2.22×GzmB mix to establish inhibition (enzyme/inhibitor mixes were all prepared in granzyme B assay buffer and were incubated first at room temperature for 20 minutes, then at 30° C. for another 10 minutes). After incubation, 50 uL of this 2× enzyme/inhibitor mix was added to the corresponding coated well to initiate fibronectin cleavage (20 nM final granzyme B concentration, 8-point inhibitor dilution series starting at 50 uM). The assay was conducted at 30° C. in the TECAN plate reader (TECAN INFINITE® M1000 Pro), which was programmed to monitor the kinetic fluorescence polarization signal (filter set Ex/Em 470 nm/527 nm) with readings taken every minute, for 1 hour. Proteolytic activity was evaluated as the rate of fluorescence enhancement in the parallel emission over the linear range of the reaction. % Inhibition values were calculated from assay controls and the resulting date is shown in Table 8.

human Granzyme B (hGzmB) = biological target: T1, human Granzyme B (hGzmB) (Homo sapiens, UniProt P10144); assay: Human Granzyme B enzymatic inhibition assay (fluorogenic, kinetic); type: biochemical; conditions: activity codes, Table 7; read-out: IC50 Activity Range
T1 construct: purchased Froelich Lab, Northshore University Health Systems Research Institute, Evanston, Ill., USA
T1 sequence (P10144 21-247): as above
How it was run: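 Human Granzyme B preincubated with compound for 30 min total (5 min shaking, 20 min bench, then reaction temperature). Fluorogenic substrate added and read kinetically, 25 cycles at 1-min intervals. Percent inhibition at one or two concentrations or 8–12-point 3-fold dose response from 20 uM, replicates, with IC50 by non-linear regression.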

[2] = read-out: Solubility in aqueous PBS Buffer (1X, pH 7.4)
[3] = read-out: Solubility in aqueous PBS Buffer (1X, pH 7.4), ug/mL

Row | solubility at 24 h [1, 2] | solubility at 24 h [1, 3] | inhibition at 0.62 µM (GzmB) | inhibition at 5.56 µM (GzmB) | inhibition at 50 µM (GzmB) | IC50 (human Granzyme B (hGzmB)) | Compound
1 | > 750 µM | > 386 µg/mL | 11% | 52% | 82% | < 100 nM | CC[C@H](C)[C@H](NC(=O)CCC(=O)O)C(=O)NCC(=O)N1c2ccccc2C[C@H]1C(=O)NCc1nn[nH]n1 [Example A13, 3-{[(1S,2S)-2-Methyl-1-({2-Oxo-2-[(2S)-2-[(2H-1,2,3,4-Tetrazol-5-Ylmethyl)Carbamoyl]-2,3-Dihydro-1H-Indol-1-Yl]Ethyl}Carbamoyl)Butyl]Carbamoyl}Propanoic Acid]
2 | 53 µM | 31 µg/mL | 57% | 96% | 102% | < 100 nM | CC[C@H](C)[C@H](NC(=O)Cc1csc2ccccc12)C(=O)NCC(=O)N1c2ccccc2C[C@H]1C(=O)NCc1nn[nH]n1 [Example A27, (2S)-1-{2-[(2S,3S)-2-[2-(1-Benzothiophen-3-Yl)Acetamido]-3-Methylpentanamido]Acetyl}-N-(2H-1,2,3,4-Tetrazol-5-Ylmethyl)-2,3-Dihydro-1H-Indole-2-Carboxamide]
3 | > 750 µM | > 393 µg/mL | 45% | 79% | 98% | < 100 nM | CC[C@H](C)[C@H](NC(=O)Cc1nn[nH]n1)C(=O)NCC(=O)N1c2ccccc2C[C@H]1C(=O)NCc1nn[nH]n1 [Example A28, (2S)-1-{2-[(2S,3S)-3-Methyl-2-[2-(2H-1,2,3,4-Tetrazol-5-Yl)Acetamido]Pentanamido]Acetyl}-N-(2H-1,2,3,4-Tetrazol-5-Ylmethyl)-2,3-Dihydro-1H-Indole-2-Carboxamide]
